Results on two molecules are retold here after patent US12091683B2, “Method for producing platelets, method for producing platelet product, and method for producing blood product” (MEGAKARYON CORPORATION, priority 2017, dated 2024).

Experiment [1] deals with immortalized megakaryocyte cell line from iPS cells induced from SeV2-MKCL. The settings on record: high-density culture (×4), compared with control in high-density culture.
Source text: iPS cells were induced by introducing c-MYC, OCT3/4, SOX2, and KLF4 into immortalized megakaryocyte cell line (SeV2-MKCL) obtained in Example 1(1-6) by the Sendai virus vector according to the method described in WO 2010/134526. Next, immortalized megakaryocyte cell lines were induced in the same manner as in Examples 1(1-1) to (1-6) except that the induced iPS cells were used instead of the human iPS cells (TKDN SeV2). Further, as to the obtained immortalized megakaryocyte cell line, the number of platelets was counted and the platelet concentration was calculated in the same manner as in Example 1(2). Then, the P/M ratio was calculated based on the megakaryocyte cell density (dissemination density) at the start of production of platelets and the platelet concentration.
The test system of experiment [2] is immortalized megakaryocyte cell line from human iPS cells (NIH8). The settings on record: 4.0×10^5 (×4) or 6.0×10^5 cells/mL (×6), 5 days, glycine added, compared with control in high-density culture, FIG. 6B. The method, then:
(§1) Immortalized megakaryocyte cell lines were induced in the same manner as in Examples 1(1-1) to (1-6) except that human iPS cells (NIH5 and NIH8) were used instead of the human iPS cells (TKDN SeV2). As to the obtained immortalized megakaryocyte cell line, the number of platelets was counted and the platelet concentration was calculated in the same manner as in Example 1(2) except that the cell dissemination density was set to 4.0×10^5 cells/mL (×4) or 6.0×10^5 cells/mL (×6) and the culture was performed for 5 days. As a control, the platelet concentration was calculated in the same manner except that the cell dissemination density was set to 1.0×10^5 cells/mL (×1), 4.0×10^5 cells/mL (×4), or 6.0×10^5 cells/mL (×6), and the glycine-non-added platelet production medium was used.
(§2) FIGS. 6A and 6B are graphs each showing the platelet concentration. […] In FIGS. 6A and 6B, the horizontal axis indicates the condition of cell dissemination density and glycine concentration, and the vertical axis indicates the platelet concentration.

In experiment [3] the test system is immortalized megakaryocyte cell line from human iPS cells (NIH5). Conditions: 4.0×10^5 (×4) or 6.0×10^5 cells/mL (×6), 5 days, glycine added, compared with control in high-density culture, FIG. 6A. The procedure: as §1, §2
For experiment [4], the system named is immortalized megakaryocyte cell lines (SeV2-MKCL).
Source text: The forced expression was canceled by performing culturing in a medium not containing DOX. Specifically, the immortalized megakaryocyte cell lines (SeV2-MKCL) obtained using the method (1) were washed twice with PBS (−), and suspended in a following platelet producing medium. The cell dissemination density was set to 4.0×10^5 cells/mL (×4).
The platelet producing medium was obtained by adding the components listed below to a basal medium IMDM (concentration means final concentration).
The test system of experiment [5] is platelets produced from immortalized megakaryocyte cell lines (SeV2-MKCL). Conditions: 10 mmol/L glycine and 20 U/mL heparin added; dissemination density ×1, ×2, ×3, ×4, ×8; compared with controls; FIG. 3.
Procedure: In addition, the deterioration state of platelets obtained was evaluated based on the positive rate of Annexin V. Specifically, in measurement of the Annexin V positive rate in platelets, 100 μL of the culture solution after platelet production was poured into a FACS tube, and the solution was stained by adding the following labeled antibody and protein, diluted to 5 times with an Annexin V binding buffer (BD Biosciences) immediately before flow cytometer analysis, and then subjected to analysis.
1.0 μL anti-CD41a antibody APC label (Bio Legend 303710)
1.0 μL anti-CD42b antibody PE label (Bio Legend 303906)
5 μL Annexin V FITC label (BD Biosciences 556419)
The test system is the same in experiment [6]. Kind of experiment: Bioactivity of platelets produced, MFIs of CD62p and PAC-1 by flow cytometer. It is filed as cell-based, human. The method, then:
The bioactivity of platelets obtained in Example 1(2) was measured using a flow cytometer. Specifically, 900 μL of diluent was added to a 1.5-mL microtube, and 100 μL of culture solution after platelet production was added and mixed. Then, 200 μL of obtained solution was poured into a FACS tube, stained by adding the labeled antibody shown below, and the MFIs of CD62p and PAC-1 in platelets were analyzed using the flow cytometer. The same analysis was also performed using the flow cytometer in NC, and then the increase percentage of the MFIs of CD62p and PAC-1 in the respective samples were calculated with reference to the MFIs of CD62p and PAC-1 in NC.
FIGS. 2A and 2B are graphs each showing the increase percentage of MFIs of CD62p and PAC-1. […] In addition, the expression levels of CD62p and PAC-1 were increased in a concentration-dependent manner.
The increase percentages of MFIs of CD62p and PAC-1 were calculated in the same manner as in Example 1(3) except that platelet was produced using a platelet production medium being added with cysteine at a predetermined concentration (1, 5, or 10 mmol/L) instead of glycine. The platelet production medium contains 0.6 to 0.8 mmol/L cysteine. Therefore, the concentration of the cysteine in the platelet production medium after being added with cysteine are about 2 to about 11 mmol/L. As a control, the increase percentage of MFIs of CD62p and PAC-1 was calculated in the same manner except that no cysteine was added.

Where [7] appears, read: high-density culture (×4), added glycine 5, 10, 20, 40 mmol/L, compared to control without glycine, FIGS. 2A, 2B.
Setting [8] is: high-density culture, added cysteine 1, 5 or 10 mmol/L, compared to control (NC) without cysteine, FIG. 4.

As for `NCC(=O)O` [glycine], the “ability of megakaryocyte to produce platelets (P/M ratio)” value in experiment [1] (any glycine concentration, FIG. 5A) is reported as “improved”. In addition, the platelet concentration entry in experiment [1] (FIG. 5B) is listed as “increased at any glycine concentration”; in experiment [2], “increased at any dissemination density”; in experiment [3], “increased at any dissemination density”. Besides, the number of platelets result in experiment [4] (4.0×10^5 cells/mL (×4), added glycine 1, 5, 10, 20 or 40 mmol/L, 6 days, compared with high-density culture using glycine-non-added medium, FIGS. 1A, 1B) was “increased at all concentrations”; in experiment [5], “increased”. Further, the “ability of megakaryocyte to produce platelets” value in experiment [4] (glycine concentration at the start of production of platelets 11 to 31 mmol/L or 11 to 21 mmol/L, high-density culture (×4)) is “further improved”. Also, in experiment [5], the “deterioration of platelet (percentage of Annexin V-positive cells)” value is recorded as “suppressed”. Besides, the “expression level of CD62p (increase percentage of MFI)” value in experiment [6] (setting [7]) is reported as “increased at all glycine concentrations”. For the same molecule, the “expression level of PAC-1 (increase percentage of MFI)” value in experiment [6] (setting [7]) was “increased at all glycine concentrations”.
Take `N[C@@H](CS)C(=O)O` [cysteine]: in experiment [6] (setting [8]), the “expression level of CD62p (increase percentage of MFI)” value is “increased at all cysteine concentrations” and the “expression level of PAC-1 (increase percentage of MFI)” value is “increased at all cysteine concentrations”.
